Entries after “also recorded” stand apart in the source; their conditions may differ.
Experiments:
LC3-II/I conversion = experiment: Autophagy induction (LC3-II/I conversion) by Western blot in R6/2 brain slices; format: cell-based; details: R6/2 slices treated DIV14 to DIV21, analysed at DIV21
Description: (§1) Transgenic mice expressing human Huntingtin Exon-1Q200 (R6/2 mouse model described in Davies et al., 1997) were housed in a temperature-controlled room and maintained on a 12 hr light/dark cycle. Food and water were available ad libitum and experiments were carried out in accordance with the local authorization guidelines for the care and use of laboratory animals. Slice cultures were established according to the procedure described by Stoppini and colleagues (Stoppini et al., 1991 and Gogolla et al., 2006) and a particular cutting angle was utilized to produce brain slices with a preserved cortico-striatal pathway. Finally, slices were selected, placed on Millicel (Millipore, PICM03050) and cultured in 6-well dishes at 35° C. and 5% CO2 in the presence of 1 ml of culture medium.
Slices were treated with different mTOR inhibitors from DIV14 to DIV21. The culture medium was exchanged every second day, and drugs were added in the fresh culture medium. We used this protocol to evaluate the action of the following mTOR inhibitors: BEZ235 (50 and 300 nM in DMSO), RAD001 (250 nM in DMSO), CCG168 (300 nM in DMSO), RAD001+BEZ235 (250 10, 250 30 and 250 50 nM in DMSO) and RAD001'CCG168 (250 and 50 nM in DMSO).
Slices were washed in PBS and lysed in 1% Triton X-100/PBS containing Complete Mini (Roche, #04693124001) and PhosSTOP (Roche, #04906837001). Lysates were ultrasonicated and analysed by Western blotting for B-actin (Sigma, #A5441), pS6 Ser 240/244 (Cell Signalling, #2215), and LC3B (Cell Signalling, #2775). Immunoblots were developed with ECL detection reagent (Amersham Biosciences).

neurofilament = experiment: Striatal degeneration: neurofilament intensity in R6/2 brain slices; format: cell-based, mouse; details: R6/2 slices at DIV21
Description: as §1
(§2) Slices were treated with different mTOR inhibitors from DIV14 to DIV21. The culture medium was exchanged every second day, and drugs were added in the fresh culture medium. […]
(§3) High resolution images were acquired on an upright Zeiss LSM700 confocal microscope, using a Plan-Neofluar 40×/1.3 oil immersion objective. For the quantification of the PolyQ density and DARPP-32/NeuF signal intensity, at least three confocal 3D stacks/slice were acquired in striatum for each experiment (five slices per condition), and analyzed using Imaris 4.2 (Bitplane AG) and Image J softwares.
(§4) All data are expressed as mean±SEM. […]

p-S6 S240/244 = experiment: mTORC1 activity (p-S6 S240/244) by Western blot in R6/2 brain slices; format: cell-based, mouse; details: R6/2 slices treated DIV14 to DIV21, analysed at DIV21
mTOR = mTOR (Homo sapiens, UniProt P42345); details: low concentration; Serra et al., 2008; cited from earlier work
DARPP-32 = experiment: Striatal degeneration: DARPP-32 intensity in R6/2 brain slices; format: cell-based, mouse; details: R6/2 slices at DIV21
Description: as §1, §2, §3, §4

PI3K/mTOR = details: relatively higher concentrations; Serra et al., 2008; cited from earlier work
polyQ inclusions = experiment: polyQ density by immunohistochemistry in R6/2 brain slices; format: cell-based, mouse; details: R6/2 slices at DIV21, vs control R6/2
Description: as §1, §2, §3, §4

[1] = single low-concentration (50 nM)
[2] = single low-concentration (250 nM)

Compound | LC3-II/I conversion (autophagy induction) (LC3-II/I conversion; 50 nM) | LC3-II/I conversion (autophagy induction) (LC3-II/I conversion; 300 nM) | preservation of neurofilament level (neurofilament; [1]) | p-S6 S240/244 level (p-S6 S240/244; 50 nM) | concentration at which mTOR inhibition predominates (mTOR) | preservation of DARPP-32 level (DARPP-32; [1]) | concentration giving dual PI3K/mTOR inhibition (PI3K/mTOR) | polyQ density (polyQ inclusions; 50 nM) | LC3-II/I conversion (autophagy induction) (LC3-II/I conversion; 250 nM) | preservation of neurofilament level (neurofilament; [2]) | p-S6 S240/244 level (p-S6 S240/244; 250 nM) | preservation of DARPP-32 level (DARPP-32; [2]) | polyQ density (polyQ inclusions; 250 nM)
Cn1c(=O)n(-c2ccc(C(C)(C)C#N)cc2)c2c3cc(-c4cnc5ccccc5c4)ccc3ncc21 [BEZ235, 2-methyl-2-[4-(3-methyl-2-oxo-8-quinolin-3-yl-2,3-dihydro-imidazo[4,5-c]quinolin-1-yl)-phenyl]-propionitrile] | no effect | induced autophagy; also recorded: reached similar efficacy | ineffective | did not reduce | less than 100 nmol/L | ineffective | approximately 500 nmol/L | no effect | – | – | – | – | –
CO[C@H]1C[C@@H]2CC[C@@H](C)[C@@](O)(O2)C(=O)C(=O)N2CCCC[C@H]2C(=O)O[C@H]([C@H](C)C[C@@H]2CC[C@@H](OCCO)[C@H](OC)C2)CC(=O)[C@H](C)/C=C(\C)[C@@H](O)[C@@H](OC)C(=O)[C@H](C)C[C@H](C)/C=C/C=C/C=C/1C [RAD001, (1R,9S,12S,15R,16E,18R,19R,21R,23S,24E,26E,28E,30S,32S,35R)-1,18-dihydroxy-12-{(1R)-2-[(1S,3R,4R)-4-(2-hydroxyethoxy)-3-methoxycyclohexyl]-1-methylethyl}-19,30-dimethoxy-15,17,21,23,29,35-hexamethyl-11,36-dioxa-4-aza-tricyclo[30.3.1.0^4,9]hexatriaconta-16,24,26,28-tetraene-2,3,10,14,20-pentaone] | – | – | – | – | – | – | – | – | no effect | ineffective | reduced | ineffective | no effect
COc1ccc(-c2ccc3c(N4CCOC[C@@H]4C)nc(N4CCOC[C@@H]4C)nc3n2)cc1CO [CCG168, {5-[2,4-bis-((S)-3-methyl-morpholin-4-yl)-pyrido[2,3d]pyrimidin-7-yl]-2-methoxy-phenyl}-methanol] | – | induced autophagy; also recorded: reached similar efficacy | – | – | – | – | – | – | – | – | – | – | –

— US9358236B2, “Combinations of therapeutic agents for use in the treatment of neurodegenerative diseases” (Novartis AG, priority 2011, dated 2016)
